pIC50: −log10 of the molar value. Read-outs that look alike come from different tables or passages of the source. Some results are limits rather than exact numbers.

One test addresses dam methylase (E. coli) (Escherichia coli, UniProt P0AEE8). Type of test: biochemical. Particulars: at 100 μM.
The target of test [1] is dcm methyltransferase (HhaI) (Haemophilus parahaemolyticus, UniProt P05102). In kind it is biochemical, Hemophilus hemolyticus. Conditions: at 500 μM.
A further test concerns Caulobacter cresentus. Kind of test: microbe, parasite or virus in culture. In kind it is cell-based.
Another test relates to Helicobacter pylori. In kind it is cell-based. Conditions: read-out: IC50, cell growth inhibition.
For test [2], the system named is Agrobacterium tumefaciens. In kind it is cell-based. Conditions: read-out: IC50, cell growth inhibition.
For a further test, the system named is Bacillus subtilis. Kind of test: microbe, parasite or virus in culture. In kind it is cell-based.
In test [3] the test system is bacterial cells expressing an adenine DNA methyltransferase. In kind it is cell-based.
For test [4], the target named is adenine DNA methyltransferase (Caulobacter vibrioides (Caulobacter crescentus), UniProt P0CAW2). Type of test: biochemical.
Where [5] appears, read: read-out: IC50, cell growth inhibition.
Where [6] appears, read: Caulobacter, read-out: IC50, Caulobacter cresentus.
Where [7] appears, read: Bacillus subtilis, read-out: IC50, Bacillus subtilis.

Sequence of dcm methyltransferase (HhaI) (P05102 whole entry): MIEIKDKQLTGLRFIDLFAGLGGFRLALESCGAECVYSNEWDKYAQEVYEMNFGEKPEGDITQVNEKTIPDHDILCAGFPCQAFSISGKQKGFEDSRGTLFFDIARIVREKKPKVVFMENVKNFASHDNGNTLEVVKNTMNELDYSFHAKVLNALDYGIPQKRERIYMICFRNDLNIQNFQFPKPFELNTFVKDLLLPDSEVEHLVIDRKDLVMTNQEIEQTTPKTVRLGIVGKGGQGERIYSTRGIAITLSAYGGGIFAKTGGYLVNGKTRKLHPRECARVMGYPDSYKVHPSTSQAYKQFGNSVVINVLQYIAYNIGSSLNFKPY
Sequence of dam methylase (E. coli) (P0AEE8 whole entry): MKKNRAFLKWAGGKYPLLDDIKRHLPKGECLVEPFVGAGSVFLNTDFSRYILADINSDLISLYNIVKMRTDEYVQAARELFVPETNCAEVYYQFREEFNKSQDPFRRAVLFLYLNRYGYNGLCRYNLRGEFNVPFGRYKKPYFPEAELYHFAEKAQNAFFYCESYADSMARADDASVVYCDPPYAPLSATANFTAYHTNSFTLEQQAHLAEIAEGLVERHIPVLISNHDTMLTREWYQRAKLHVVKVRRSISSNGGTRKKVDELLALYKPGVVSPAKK
Sequence of adenine DNA methyltransferase (P0CAW2 whole entry): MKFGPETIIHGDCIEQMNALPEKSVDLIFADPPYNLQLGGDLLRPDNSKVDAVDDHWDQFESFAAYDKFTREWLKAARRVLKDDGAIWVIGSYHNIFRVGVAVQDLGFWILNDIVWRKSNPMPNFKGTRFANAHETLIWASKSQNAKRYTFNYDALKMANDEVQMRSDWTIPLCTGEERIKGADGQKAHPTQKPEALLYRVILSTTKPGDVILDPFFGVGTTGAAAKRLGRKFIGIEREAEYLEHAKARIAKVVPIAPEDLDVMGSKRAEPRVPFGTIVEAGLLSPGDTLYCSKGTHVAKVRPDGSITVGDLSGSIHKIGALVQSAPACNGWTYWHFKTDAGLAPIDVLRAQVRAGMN

As to “6-N-(diphenylborinic ester)-ethyl-9-(2-(2-(2-hydroxyethoxy)ethoxy)ethyl)-adenine [Compound 3d]”, the “inhibition of dam methylase (E. coli)” value against dam methylase (E. coli) was “Complete inhibition”. In test [1], the “inhibition of dcm methyltransferase (HhaI)” value (“inhibition … (HhaI)” for short) was “No inhibition at all”. Besides, the pIC50 – broadly, the IC50 on a negative log10 scale, so that one unit is a factor of ten – was over 4.60 with Caulobacter cresentus (setting [5]), 4.00 to 4.60 in the test on Helicobacter pylori, over 4.60 in test [2] and 4.30 to 5.00 in the test on Bacillus subtilis (setting [5]).

`Clc1ccc([B-]2(c3ccc(Cl)cc3)[NH2+]CCO2)cc1` [(5), di-(p-chlorophenyl)borinic acid ethanolamine ester]: the values for the pIC50 with Caulobacter cresentus (setting [6]) and with Bacillus subtilis (setting [7]) were 4.77 and 4.49, respectively.

On to `Fc1ccc([B-]2(c3ccc(F)cc3)[NH2+]CCO2)cc1` [(4), di-(p-fluorophenyl)borinic acid ethanolamine ester], for which the pIC50 in the test with Caulobacter cresentus (setting [6]) was 4.07; in the test with Bacillus subtilis (setting [7]), 4.47.

As to “6-N-(diphenylborinic ester)-ethyl-9-(ethyl-2-acrylate)-methyl-adenine [Compound 3e]”, the “inhibition of dam methylase (E. coli)” value against dam methylase (E. coli) is recorded as “Complete inhibition”. The “inhibition … (HhaI)” value in test [1] is recorded as “No inhibition at all”. Further, the results for the negative-log IC50 (pIC50) (with Caulobacter cresentus (setting [5]); in the test on Helicobacter pylori; in test [2]) were over 4.60, 4.60 and over 4.60, respectively.

As for “6-N-(diphenylborinic ester)-ethyl-adenine [Compound 3a]”, at dam methylase (E. coli), the “inhibition of dam methylase (E. coli)” value is given as “Complete inhibition”. The “inhibition … (HhaI)” value in test [1] is on record as “No inhibition at all”. The negative-log IC50 (pIC50) is over 4.60 in the test with Caulobacter cresentus (setting [5]), over 4.60 in the test with Helicobacter pylori, under 4.00 in test [2] and 4.30 to 5.00 in the test on Bacillus subtilis (setting [5]).

On to “6-N-(diphenylborinic ester)-ethyl-9-(2-(4-morpholinyl)-ethyl)-adenine [Compound 3b]”, for which, on dam methylase (E. coli), the “inhibition of dam methylase (E. coli)” value is given as “Complete inhibition”. Also, the “inhibition … (HhaI)” value in test [1] is “No inhibition at all”. For the same molecule, the pIC50 in the test on Caulobacter cresentus (setting [5]) is over 4.60; in the test with Helicobacter pylori, over 4.60; in test [2] it was 4.60; in the test with Bacillus subtilis (setting [5]), 5.00 to 6.00.

With `c1ccc(B(OCCNc2ncnc3[nH]cnc23)c2ccccc2)cc1`, the “concentration that inhibits cell growth” value in test [3] is under 50 µM.

In the case of `NCCNc1ncnc2[nH]cnc12` [compound (8)], the inhibitory activity entry in test [4] was “relatively low (mM range)”.

As for `Fc1ccc([B-]2(c3ccc(F)cc3)Oc3cccc4ccc[n+]2c34)cc1` [(1), di-(p-fluorophenyl)borinic acid 8-hydroxyquiniline ester], the negative-log IC50 (pIC50) in the test with Caulobacter cresentus (setting [6]) was 4.64; with Bacillus subtilis (setting [7]), 4.85.

As to `Clc1ccc([B-]2(c3ccc(Cl)cc3)Oc3cccc4ccc[n+]2c34)cc1` [(2), di-(p-chlorophenyl)borinic acid 8-hydroxyquiniline ester], the values for the negative logarithm of the IC50 (pIC50) with Caulobacter cresentus (setting [6]) and in the test on Bacillus subtilis (setting [7]) were 4.80 and 5.15, respectively.

As for “6-N-(diphenylborinic ester)-ethyl-9-(3-(N-phthaloyl)-aminopropyl)-adenine [Compound 3c]”, on dam methylase (E. coli), the “inhibition of dam methylase (E. coli)” value is reported as “Complete inhibition”. Besides, in test [1], the “inhibition … (HhaI)” value is “No inhibition at all”. The pIC50 in the test with Caulobacter cresentus (setting [5]) was over 4.60; in the test with Helicobacter pylori, 4.00 to 4.60; in test [2], 4.60; with Bacillus subtilis (setting [5]), 5.00 to 6.00.

As for `c1ccc([B-]2(c3ccccc3)Oc3cccc4ccc[n+]2c34)cc1` [(3), diphenylborinic acid 8-hydroxyquiniline ester], in the test with Caulobacter cresentus (setting [6]), the negative-log IC50 (pIC50) is under 4.00.
